# In patent publication US20110046381A1, “NOVEL 4-{3-[4-(3-{4-[AMINO (BUTOXYCARBONYLIMINO) METHYL] PHENOXY} PROPYL)-1-PIPERIDINYL] PROPOXY]-N'-(BUTOXYCARBONYL) BENZAMIDINE CRYSTALS” (Toyama Chemical Co., Ltd., priority 2007, published 2011):
# What was measured:
# [1] = Tapped density (Test Example 1); format: physicochemical; settings: sieved 18 mesh, tapped 180 times, W/V1
# Procedure: The test materials passed through a sieve (18 mesh) were filled into a measuring cylinder and the weight W(g) of the filled test materials was measured. Next, the measuring cylinder containing the test materials was mechanically tapped 180 times by a powder characteristic measuring device (a powder tester PT-E, Hosokawa Micron Corporation). After tapping, the volume V1 (mL) of the tapped test materials was measured. By the following formula, the tapped density (g/mL) was calculated. Tapped density (g/mL)=W/V1
# [2] = Surface potential after corona discharge (Test Example 2); format: physicochemical; settings: 25° C., 50% RH; corona discharge −4 kV for 2 minutes
# Procedure: The following test was conducted in a thermo-hygrostat (25° C., 50% RH). The test materials were set in a sample plate (SUS304, the surface was ground by a buff400, the volume: about 6 mL, the depth: 3 mm, cylindrical, the upper aspect was opened), and was charged by corona discharge (the corona voltage: −4 kV) from an impressed voltage device for 2 minutes (the distance between the impressed voltage device and the sample plate: 30 mm). After charging, the surface potential of the test materials was measured (the distance between the sensor and the sample: 5 mm). Thermo-hygrostat: KCL-2000, EYELA CORPORATION Surface potential measurement device: SK-200, KEYENCE CORPORATION Impressed voltage device: SJ-G036, KEYENCE CORPORATION Data logger: AD-DIO Card Bus, Interface Corporation
# [3] = Sticking test, scraper pressure of tablets (Test Example 3); format: physicochemical; settings: tablets containing 200 mg, diameter 8.5 mm, loading pressure 10 kN
# Procedure: Tablets (flat-shaped, the diameter 8.5 mm) containing 200 mg of the test materials were prepared by using a tableting process analyzer (Tab Flex TAB-10, OKADA SEIKO CO., LTD.) (the loading pressure: 10 kN). Next, the scraper pressure was measured when the tablets were pushed out by a scraper.
# [4] = Adhesion test to a metal cup (Test Example 4); format: physicochemical; settings: 5 g test material in SUS304 metal cup, weight adhering after turning over the cup
# Procedure: 5 g of the test materials passed through a sieve (18 mesh) are filled in a metal cup (SUS304, the internal diameter: 65 mm, the volume: about 200 mL), and then the test materials were removed by turning over the cup. The weight of the test materials adhering on the surface of the cup was measured.
# [5] = Compression moldability test, tablet hardness (Test Example 5); format: physicochemical; settings: 200 mg tablets
# Procedure: Tablets (flat-shaped, the diameter: 8.5 mm) containing 200 mg of the test materials were prepared by using a tableting process analyzer (Tab Flex TAB-10, OKADA SEIKO CO., LTD.) (The loading pressure: 5 and 10 kN). Next, the breaking strength of the tablets was measured by a tablet hardness tester (PC-30, OKADA SEIKO CO., LTD.).
# [6] = tested on: Candida albicans TIMM1623; assay: Mouse Candida infection model test, oral administration (Test Example 6); format: in vivo; settings: immunosuppressed mice, i.v. infection about 3×10^4 CFU/mouse; 1 mg/kg orally once daily for 4 days; observed for 14 days; 5 mice/group
# Procedure: Candida albicans TIMM1623, which was obtained from overnight cultures grown on Sabouraud dextrose agar (SDA) plates at 35° C., was suspended in sterile physiological saline, then diluted to prepare a suspension of inoculum organism.
# Transient immunosuppression in mice (four-week-old, 5 mice/group) was induced by intraperitoneal treatment with 200 mg/kg cyclophosphamide 4 days before the infection and with 100 mg/kg cyclophosphamide 1 day after the infection. Infection was induced by the intravenous inoculation of 0.2 mL of the cell suspension of Candida albicans TIMM1623 (about 3×10^4 CFU/mouse) via the lateral tail vein. The test compound was dissolved in 0.1 mol/L hydrochloric acid, diluted by sterilized water and orally administered at 1 mg/kg of mouse body weight. The therapy was started at 2 hours after infection and carried out once daily for 4 days. The equivalent amount of sterilized physiological saline was administered to the group to which no test compound was administered. The survival number of mice was observed and recorded for 14 days.
Compound,Tapped density [1],Surface potential [2],Scraper pressure [3],Adhering amount [4],Hardness ([5]; Loading pressure 5 kN),Hardness ([5]; Loading pressure 10 kN),mice survived [6]
"CCCCOC(=O)N=C(N)c1ccc(OCCCC2CCN(CCCOc3ccc(C(N)=NC(=O)OCCCC)cc3)CC2)cc1 [Type I crystal, 4-{3-[4-(3-{4-[amino(butoxycarbonylimino)methyl]phenoxy}propyl)-1-piperidinyl]propoxy}-N′-(butoxycarbonyl)benzamidine]",0.22 g/mL,−2.3 kV,7.2 kN,70 mg,56 N,57 N,80%
"CCCCOC(=O)N=C(N)c1ccc(OCCCC2CCN(CCCOc3ccc(C(N)=NC(=O)OCCCC)cc3)CC2)cc1 [Type II crystal, 4-{3-[4-(3-{4-[amino(butoxycarbonylimino)methyl]phenoxy}propyl)-1-piperidinyl]propoxy}-N′-(butoxycarbonyl)benzamidine]",0.40 g/mL,,2.9 kN,17 mg,63 N,94 N,80%
"CCCCOC(=O)N=C(N)c1ccc(OCCCC2CCN(CCCOc3ccc(C(N)=NC(=O)OCCCC)cc3)CC2)cc1 [Type III crystal, 4-{3-[4-(3-{4-[amino(butoxycarbonylimino)methyl]phenoxy}propyl)-1-piperidinyl]propoxy}-N′-(butoxycarbonyl)benzamidine]",0.45 g/mL,−1.9 kV,1.9 kN,22 mg,66 N,95 N,80%
"CCCCOC(=O)N=C(N)c1ccc(OCCCC2CCN(CCCOc3ccc(C(N)=NC(=O)OCCCC)cc3)CC2)cc1 [Type IV crystal, 4-{3-[4-(3-{4-[amino(butoxycarbonylimino)methyl]phenoxy}propyl)-1-piperidinyl]propoxy}-N′-(butoxycarbonyl)benzamidine]",0.47 g/mL,−1.3 kV,2.9 kN,40 mg,,,80%
